Structures can show the parent of a compound that is named as a salt.
What was measured:
[1] = molecular target: Acetylcholinesterase (Electrophorus electricus) (UniProt O42275); assay: Inhibition of electric eel AChE using acetylthiocholine iodide as substrate at 10 uM preincubated for 20 mins followed by substrate addition and measured every 20 secs for 3 mins by Ellman's method relative to control; conditions: time 23.0 min
[2] = Selectivity index, ratio of IC50 for horse serum BuChE using butyrylthiocholine iodide as substrate to IC50 for electric eel AChE using acetylthiocholine iodide as substrate
Acetylcholinesterase [3] = molecular target: T1, Acetylcholinesterase (Electrophorus electricus, UniProt O42275); assay: Inhibition of electric eel AChE using acetylthiocholine iodide as substrate preincubated for 20 mins followed by substrate addition and measured every 20 secs for 3 mins by Ellman's method
T1 sequence (O42275 whole entry): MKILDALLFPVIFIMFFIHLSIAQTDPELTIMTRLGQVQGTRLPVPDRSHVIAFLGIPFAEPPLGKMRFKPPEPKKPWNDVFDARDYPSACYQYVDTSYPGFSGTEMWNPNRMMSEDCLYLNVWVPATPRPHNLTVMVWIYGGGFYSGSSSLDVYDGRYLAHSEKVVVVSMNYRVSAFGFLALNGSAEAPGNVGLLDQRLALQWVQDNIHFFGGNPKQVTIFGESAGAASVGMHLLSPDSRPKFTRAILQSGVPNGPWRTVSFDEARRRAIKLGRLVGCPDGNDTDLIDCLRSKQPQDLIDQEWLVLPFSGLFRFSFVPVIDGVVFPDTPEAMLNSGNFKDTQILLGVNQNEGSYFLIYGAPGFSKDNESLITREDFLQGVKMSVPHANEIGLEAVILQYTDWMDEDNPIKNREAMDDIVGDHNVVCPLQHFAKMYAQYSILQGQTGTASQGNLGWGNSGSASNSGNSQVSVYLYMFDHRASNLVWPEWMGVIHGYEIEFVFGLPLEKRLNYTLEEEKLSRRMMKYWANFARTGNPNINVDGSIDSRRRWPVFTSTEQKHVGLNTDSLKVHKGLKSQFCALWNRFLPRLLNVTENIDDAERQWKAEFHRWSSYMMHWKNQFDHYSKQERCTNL

Cholinesterase = Cholinesterase (Equus caballus, UniProt P81908); assay: Inhibition of horse serum BuChE using butyrylthiocholine iodide as substrate preincubated for 20 mins followed by substrate addition and measured every 20 secs for 3 mins by Ellman's method
Sequence of Cholinesterase (P81908 whole entry): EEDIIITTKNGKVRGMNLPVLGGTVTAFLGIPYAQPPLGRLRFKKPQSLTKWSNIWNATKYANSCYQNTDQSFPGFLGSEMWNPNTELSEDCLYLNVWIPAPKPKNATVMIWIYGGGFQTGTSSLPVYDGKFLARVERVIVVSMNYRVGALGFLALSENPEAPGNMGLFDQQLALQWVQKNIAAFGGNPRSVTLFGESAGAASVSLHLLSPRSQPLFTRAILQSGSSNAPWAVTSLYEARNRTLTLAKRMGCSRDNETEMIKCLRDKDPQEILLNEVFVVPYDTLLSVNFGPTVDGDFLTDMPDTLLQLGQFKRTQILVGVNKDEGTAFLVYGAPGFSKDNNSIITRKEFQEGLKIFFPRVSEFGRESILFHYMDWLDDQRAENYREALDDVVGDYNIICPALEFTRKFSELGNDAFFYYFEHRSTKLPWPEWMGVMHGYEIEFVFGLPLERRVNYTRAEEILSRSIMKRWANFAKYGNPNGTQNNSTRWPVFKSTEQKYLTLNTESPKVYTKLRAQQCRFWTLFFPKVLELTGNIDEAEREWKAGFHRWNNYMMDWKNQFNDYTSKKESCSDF

[4] = Lipophilicity, log P of the compound in n-octanol/water by HPLC method; assay type: physicochemical
Acetylcholinesterase [5] = molecular target: T1, Acetylcholinesterase; assay: Binding affinity to electric eel AChE assessed as inhibition constant by Lineweaver-Burk plot analysis
MRC5 = assay: Cytotoxicity against human MRC5 cells assessed as reduction in cell viability at 50 ug/ml relative to control; assay type: toxicity, cell-based; conditions: at 50 µg/mL
[6] = Cytotoxicity against human MRC5 cells assessed as reduction in cell viability; assay type: toxicity, cell-based

Sequence of Acetylcholinesterase (Electrophorus electricus) (O42275 24-633 limits assumed): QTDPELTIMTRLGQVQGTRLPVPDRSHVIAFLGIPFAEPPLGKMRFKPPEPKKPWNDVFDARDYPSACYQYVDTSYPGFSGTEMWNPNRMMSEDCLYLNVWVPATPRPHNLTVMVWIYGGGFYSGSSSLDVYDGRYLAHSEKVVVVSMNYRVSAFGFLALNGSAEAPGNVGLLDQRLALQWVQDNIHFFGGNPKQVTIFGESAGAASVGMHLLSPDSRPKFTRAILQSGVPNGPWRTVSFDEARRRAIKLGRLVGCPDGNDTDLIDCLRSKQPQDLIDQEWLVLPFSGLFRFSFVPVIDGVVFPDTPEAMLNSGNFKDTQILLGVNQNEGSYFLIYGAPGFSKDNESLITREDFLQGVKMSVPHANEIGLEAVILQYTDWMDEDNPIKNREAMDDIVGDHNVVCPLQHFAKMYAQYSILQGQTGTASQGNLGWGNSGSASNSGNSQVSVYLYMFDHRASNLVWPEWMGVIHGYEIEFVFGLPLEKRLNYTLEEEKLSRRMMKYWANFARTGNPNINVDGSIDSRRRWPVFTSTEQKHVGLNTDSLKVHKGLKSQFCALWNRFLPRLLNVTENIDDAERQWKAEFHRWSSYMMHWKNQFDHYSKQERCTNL

COc1cc2c3c(cc4ccccc4c3c1OC)N(C(=O)c1ccncc1)CC2
inhibition [1]: 16%

COc1cc2c3c(cc4ccccc4c3c1OC)N(C(=O)c1cc[n+](Cc3ccccc3F)cc1)CC2
Ratio IC50 [2]: 0.1 | IC50 (Acetylcholinesterase [3]): 2730 nM | IC50 (Cholinesterase): 280 nM

COc1cc2c3c(c1OC)-c1ccccc1C[C@H]3N(C(=O)c1cc[n+](Cc3ccccc3)cc1)CC2
Ratio IC50 [2]: 0.7 | logP [4]: 2.2 | IC50 (Acetylcholinesterase [3]): 7150 nM | Ki (Acetylcholinesterase [5]): 2570 nM | IC50 (Cholinesterase): 4950 nM

COc1cc2c3c(c1OC)-c1ccccc1CC3N(C(=O)c1cc[n+](Cc3ccccc3)cc1)CC2.[Br-] (racemic)
Activity (MRC5): 3.62% | Ratio IC50 [2]: 3.8 | logP [4]: 2.2 | IC50 (Acetylcholinesterase [3]): 350 nM | IC50 (Cholinesterase): 1330 nM

COc1cc2c3c(cc4ccccc4c3c1OC)NCC2
inhibition [1]: 12%

COc1cc2c3c(c1OC)-c1ccccc1C[C@@H]3N(C(=O)c1cc[n+](Cc3ccccc3)cc1)CC2
Ratio IC50 [2]: 40.8 | logP [4]: 2.2 | IC50 (Acetylcholinesterase [3]): 120 nM | Ki (Acetylcholinesterase [5]): 170 nM | IC50 (Cholinesterase): 4900 nM

COc1cc2c3c(c1OC)-c1ccccc1CC3N(C(=O)c1ccncc1)CC2 (racemic)
inhibition [1]: 5%

COc1cc2c3c(c1OC)-c1ccccc1CC3N(C(=O)c1cc[n+](Cc3cccc(F)c3)cc1)CC2 (racemic)
Ratio IC50 [2]: 3 | IC50 (Acetylcholinesterase [3]): 450 nM | IC50 (Cholinesterase): 1340 nM

COc1cc2c3c(c1OC)-c1ccccc1CC3N(C(=O)c1cc[n+](Cc3ccccc3Cl)cc1)CC2.[Br-] (racemic)
Activity (MRC5): 2.96% | Ratio IC50 [2]: 3.9 | logP [4]: 2.36 | IC50 (Acetylcholinesterase [3]): 180 nM | IC50 (Cholinesterase): 710 nM

COc1cc2c3c(c1OC)-c1ccccc1C[C@@H]3N(C(=O)c1cc[n+](Cc3ccc(F)cc3)cc1)CC2
Ratio IC50 [2]: 23.2 | logP [4]: 2.3 | IC50 (Acetylcholinesterase [3]): 370 nM | Ki (Acetylcholinesterase [5]): 270 nM | IC50 (Cholinesterase): 8580 nM

COc1cc2c3c(c1OC)-c1ccccc1C[C@H]3N(C(=O)c1cc[n+](Cc3ccccc3Cl)cc1)CC2.[Br-]
Activity (MRC5): 5.3% | Ratio IC50 [2]: 0.8 | logP [4]: 2.36 | IC50 (Acetylcholinesterase [3]): 2940 nM | Ki (Acetylcholinesterase [5]): 1650 nM | IC50 (Cholinesterase): 2490 nM

COc1cc2c3c(c1OC)-c1ccccc1CC3N(C(=O)c1cc[n+](Cc3ccc(F)cc3)cc1)CC2.[Br-] (racemic)
Activity (MRC5): 2.46% | Ratio IC50 [2]: 7 | logP [4]: 2.3 | IC50 (Acetylcholinesterase [3]): 660 nM | IC50 (Cholinesterase): 4730 nM

COc1cc2c3c(c1OC)-c1ccccc1CC3N(C(=O)c1cc[n+](Cc3ccc(Cl)cc3)cc1)CC2 (racemic)
logP [4]: 2.67 | inhibition [1]: 31%

COc1cc2c3c(c1OC)-c1ccccc1CC3N(C(=O)c1cc[n+](Cc3cccc(F)c3F)cc1)CC2 (racemic)
Ratio IC50 [2]: 2 | IC50 (Acetylcholinesterase [3]): 750 nM | IC50 (Cholinesterase): 1540 nM

COc1cc2c3c(c1OC)-c1ccccc1CC3N(C(=O)c1cc[n+](Cc3c(F)cccc3F)cc1)CC2 (racemic)
Ratio IC50 [2]: 1.2 | logP [4]: 2.08 | IC50 (Acetylcholinesterase [3]): 800 nM | IC50 (Cholinesterase): 970 nM

COc1cc2c3c(c1OC)-c1ccccc1CC3N(C(=O)c1cc[n+](Cc3cccc(Cl)c3)cc1)CC2 (racemic)
Ratio IC50 [2]: 0.5 | logP [4]: 2.62 | IC50 (Acetylcholinesterase [3]): 2150 nM | IC50 (Cholinesterase): 960 nM

COc1cc2c3c(c1OC)-c1ccccc1C[C@@H]3N(C(=O)c1cc[n+](Cc3ccccc3Cl)cc1)CC2.[Br-]
Activity (MRC5): 5.03% | Ratio IC50 [2]: 30.3 | logP [4]: 2.36 | IC50 (Acetylcholinesterase [3]): 60 nM | Ki (Acetylcholinesterase [5]): 220 nM | IC50 (Cholinesterase): 1820 nM

COc1cccc2c1C(=O)c1c(O)c3c(c(O)c1C2=O)C[C@@](O)(C(=O)CO)C[C@@H]3O[C@H]1C[C@H](N)[C@H](O)[C@H](C)O1 [DOXORUBICIN HYDROCHLORIDE]
IC50 [6]: 1.54 µg/mL

COc1cc2c3c(c1OC)-c1ccccc1C[C@H]3N(C(=O)c1cc[n+](Cc3ccc(F)cc3)cc1)CC2
Ratio IC50 [2]: 1.3 | logP [4]: 2.3 | IC50 (Acetylcholinesterase [3]): 12200 nM | Ki (Acetylcholinesterase [5]): 6870 nM | IC50 (Cholinesterase): 15400 nM

COc1cc2c3c(cc4ccccc4c3c1OC)N(C(=O)c1cc[n+](Cc3ccccc3)cc1)CC2
inhibition [1]: 69%

COc1cc2c3c(cc4ccccc4c3c1OC)N(C(=O)c1cc[n+](Cc3ccccc3Cl)cc1)CC2
Ratio IC50 [2]: 0.3 | IC50 (Acetylcholinesterase [3]): 1640 nM | IC50 (Cholinesterase): 440 nM

COc1cc2c3c(c1OC)-c1ccccc1CC3N(C(=O)c1cc[n+](Cc3ccccc3F)cc1)CC2 (racemic)
Ratio IC50 [2]: 3.3 | IC50 (Acetylcholinesterase [3]): 410 nM | IC50 (Cholinesterase): 1370 nM

— ChEMBL document CHEMBL5357015, “Synthesis, Antiacetylcholinesterase Activity, and Molecular Dynamics Simulation of Aporphine-benzylpyridinium Conjugates” (ACS Med Chem Lett, 2024)
